Assay results from the supplement of paper PMC11208160.

Test: recombinant UMI read abundance after kanamycin selection (control-corrected) (log10(CPM+1)); higher = more efficient recombination; extreme values may be limits of the assay; sequences stand for … in AGTGCAGAGAAAATCGGCCAGTTTTCTCTGCCTGCAGTCCGCATGCCGTGGGACCCCTTGGGTTCTAACCTGTTGCCTAGATTTATGCAGCGGACTGCCTTTCTCCCAAAGTGATAAACCGG…AGGTTGGTTTCACT; site = the 11-nt donor
Summary of the method: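 Sequenced counts of recombinant UMIs were turned into CPM, averaged across replicates and scaled with control-derived factors. The reported figure is log10(CPM+1). Those UMIs, each 12 nt long, tagged donor and donor-binding-loop pairs on a plasmid with a promoterless kanamycin gene, screened as a pool in Escherichia coli with IPTG (0.07 mM) plus kanamycin or without selection.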
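Further: IS621 bridge recombinase in Escherichia coli cells against a fixed T5 target plasmid.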

In order of falling “recombinant UMI read abundance (log10)” value:
1. AGGTACTCATGGACCGGTTTTCCCGGTAATCCGTATTTGAC (site AGGTACTCTGT)  3.57
2. AGGGGCGCATGGACCGGTTTTCCCGGTAATCCGTATTTGCC (site AGGGGCGCTGG)  3.25
3. AGGGCCTCATGGACCGGTTTTCCCGGTAATCCGTATTTGCT (site AGGGCCTCTAG)  2.95
4. AGGGACACATGGACCGGTTTTCCCGGTAATCCGTATTTGGC (site AGGGACACTGC)  2.93
5. AGGACCACATGGACCGGTTTTCCCGGTAATCCGTATTTGAC (site AGGACCACTGT)  2.79
6. AGGGAGTCATGGACCGGTTTTCCCGGTAATCCGTATTTGCA (site AGGGAGTCTTG)  2.79
7. AGGATGACATGGACCGGTTTTCCCGGTAATCCGTATTTGCA (site AGGATGACTTG)  2.76
8. AGGGTTTCATGGACCGGTTTTCCCGGTAATCCGTATTTGAA (site AGGGTTTCTTT)  2.46
9. AGGATGACATGGACCGGTTTTCCCGGTAATCCGTATTTGCA (site AGGAAGACTTG)  2.34
10. AGGTTCTCATGGACCGGTTTTCCCGGTAATCCGTATTTGTG (site AGGTTCTCTCA)  2.32
11. AGGGAGTCATGGACCGGTTTTCCCGGTAATCCGTATTTGCC (site AGGGAGTCTGG)  2.15
12. AGGTCGGCATGGACCGGTTTTCCCGGTAATCCGTATTTGGC (site AGGTCGGCTGC)  2.13
13. AGGTAGACATGGACCGGTTTTCCCGGTAATCCGTATTTGAA (site AGGTAGACTTT)  1.89
14. AGGCTGTCATGGACCGGTTTTCCCGGTAATCCGTATTTGTT (site AGGCTGTCTAA)  1.64
15. AGGTCATCATGGACCGGTTTTCCCGGTAATCCGTATTTGCT (site AGGTCATCTAG)  1.48
16. AGGATTACATGGACCGGTTTTCCCGGTAATCCGTATTTGAC (site AGGATTACTGT)  1.4
17. AGGGTCACATGGACCGGTTTTCCCGGTAATCCGTATTTGAG (site AGGGTCACTCT)  1.39
18. AGGCAGACATGGACCGGTTTTCCCGGTAATCCGTATTTGGA (site AGGCAGACTTC)  1.21
19. AGGATGACATGGACCGGTTTTCCCGGTAATCCGTATTTGCA (site AGGAGGACTTG)  1.19
20. AGGATGACATGGACCGGTTTTCCCGGTAATCCGTATTTGCA (site AGGACGACTTG)  1.16
21. AGGGAGTCATGGACCGGTTTTCCCGGTAATCCGTATTTGCC (site CGGGAGTCTGG)  0.995
22. AGGGAGTCATGGACCGGTTTTCCCGGTAATCCGTATTTGCC (site TGGGAGTCTGG)  0.994
23. AGGCGCGCATGGACCGGTTTTCCCGGTAATCCGTATTTGGA (site AGGCGCGCTTC)  0.849
24. AGGGTTCCATGGACCGGTTTTCCCGGTAATCCGTATTTGGT (site AGGGTTCCTAC)  0.793
25. AGGATCCCATGGACCGGTTTTCCCGGTAATCCGTATTTGTG (site AGGATCCCTCA)  0.753
26. AGGAATCCATGGACCGGTTTTCCCGGTAATCCGTATTTGTT (site AGGAATCCTAA)  0.74
27. AGGATGCCATGGACCGGTTTTCCCGGTAATCCGTATTTGCT (site AGGATGCCTAG)  0.721
28. AGGGGTCCATGGACCGGTTTTCCCGGTAATCCGTATTTGCT (site AGGGGTCCTAG)  0.704
29. AGGATTACATGGACCGGTTTTCCCGGTAATCCGTATTTGAC (site AGGACTACTGT)  0.662
30. AGGGCACCATGGACCGGTTTTCCCGGTAATCCGTATTTGCA (site AGGGCACCTTG)  0.655
31. AGGTTCCCATGGACCGGTTTTCCCGGTAATCCGTATTTGGT (site AGGTTCCCTAC)  0.474
32. AGGGAGTCATGGACCGGTTTTCCCGGTAATCCGTATTTGCA (site AGGAAGACTTG)  0.426
33. AGGGTCCCATGGACCGGTTTTCCCGGTAATCCGTATTTGTG (site AGGGTCCCTCA)  0.304
34. AGGTTTCCATGGACCGGTTTTCCCGGTAATCCGTATTTGTG (site AGGTTTCCTCA)  0.271
35. AGGGTCCCATGGACCGGTTTTCCCGGTAATCCGTATTTGTG (site AGGATCCCTCA)  0.239
36. AGGTTCCCATGGACCGGTTTTCCCGGTAATCCGTATTTGCG (site AGGTTCCCTCG)  0.236
37. AGGTTCTCATGGACCGGTTTTCCCGGTAATCCGTATTTGTG (site AGGTTCCCTCA)  0.22
38. AGGTTCTCATGGACCGGTTTTCCCGGTAATCCGTATTTGTG (site AGGTTCACTCA)  0.205
39. AGGTTTCCATGGACCGGTTTTCCCGGTAATCCGTATTTGTG (site AGGTTCCCTCA)  0.192
40. AGTAACGCATGGACCGGTTTTCCCGGTAATCCGTATTTGGG (site AGTAACGCTCC)  0.161
41. AGGATCCCATGGACCGGTTTTCCCGGTAATCCGTATTTGTG (site AGGTTCCCTCA)  0.051
42. AGGTTTCCATGGACCGGTTTTCCCGGTAATCCGTATTTGTG (site AGGTTACCTCA)  0.0337
43. AGGTCAGCATGGACCGGTTTTCCCGGTAATCCGTATTTGGG (site AGATCAGCTCC)  0.0289
44. AGGTCAGCATGGACCGGTTTTCCCGGTAATCCGTATTTGGG (site AGTTCAGCTCC)  0.0281
45. AGGGTGCCATGGACCGGTTTTCCCGGTAATCCGTATTTGGG (site AGGGTGCCTCC)  0.0268
46. AGGTTCCCATGGACCGGTTTTCCCGGTAATCCGTATTTGCG (site AGGTTCCCTCC)  0.0204
47. AGGTTCACATGGACCGGTTTTCCCGGTAATCCGTATTTGTG (site AGGTTCACTCA)  0.0184
48. AGGGTCCCATGGACCGGTTTTCCCGGTAATCCGTATTTGTG (site AGGTTCCCTCA)  0.0182
49. AGGTTCTCATGGACCGGTTTTCCCGGTAATCCGTATTTGTG (site AGGTTCGCTCA)  0.0171
50. AGGTTCCCATGGACCGGTTTTCCCGGTAATCCGTATTTGCG (site AGGTTCCCTCA)  0.0159
51. AGGTCAGCATGGACCGGTTTTCCCGGTAATCCGTATTTGGG (site AGCTCAGCTCC)  0.0149
52. AGGACCACATGGACCGGTTTTCCCGGTAATCCGTATTTGAC (site AGGACAACTGT)  0.0127
53. AGGGTCCCATGGACCGGTTTTCCCGGTAATCCGTATTTGTG (site AGGCTCCCTCA)  0.0118
54. AGGTTCACATGGACCGGTTTTCCCGGTAATCCGTATTTGTG (site AGGTTCTCTCA)  0.00699
55. AGGTCAGCATGGACCGGTTTTCCCGGTAATCCGTATTTGGG (site AGGTCAGCTCC)  0.00675
56. AGGTTCCCATGGACCGGTTTTCCCGGTAATCCGTATTTGCG (site AGGTTCCCTCT)  0.00665
57. AGGTTCACATGGACCGGTTTTCCCGGTAATCCGTATTTGTG (site AGGTTCGCTCA)  0.00639
58. AGGTTTCCATGGACCGGTTTTCCCGGTAATCCGTATTTGTG (site AGGTTGCCTCA)  0.00446
59. AGGATCCCATGGACCGGTTTTCCCGGTAATCCGTATTTGTG (site AGGCTCCCTCA)  0.00372
60. AGGAATCCATGGACCGGTTTTCCCGGTAATCCGTATTTGTT (site CGGAATCCTAA)  0.0029
61. AGGATCCCATGGACCGGTTTTCCCGGTAATCCGTATTTGTG (site AGGGTCCCTCA)  0.00264
62. AGGAATCCATGGACCGGTTTTCCCGGTAATCCGTATTTGTT (site GGGAATCCTAA)  0
63. AGGAATCCATGGACCGGTTTTCCCGGTAATCCGTATTTGTT (site TGGAATCCTAA)  0
64. AGGACCACATGGACCGGTTTTCCCGGTAATCCGTATTTGAC (site AGGACGACTGT)  0
65. AGGACCACATGGACCGGTTTTCCCGGTAATCCGTATTTGAC (site AGGACTACTGT)  0
66. AGGATTACATGGACCGGTTTTCCCGGTAATCCGTATTTGAC (site AGGAATACTGT)  0
67. AGGATTACATGGACCGGTTTTCCCGGTAATCCGTATTTGAC (site AGGAGTACTGT)  0
68. AGGCAGACATGGACCGGTTTTCCCGGTAATCCGTATTTGGA (site AGGAAGACTTG)  0
69. AGGGAGTCATGGACCGGTTTTCCCGGTAATCCGTATTTGCC (site GGGGAGTCTGG)  0
70. AGGGCACCATGGACCGGTTTTCCCGGTAATCCGTATTTGCA (site CGGGCACCTTG)  0
71. AGGGCACCATGGACCGGTTTTCCCGGTAATCCGTATTTGCA (site GGGGCACCTTG)  0
72. AGGGCACCATGGACCGGTTTTCCCGGTAATCCGTATTTGCA (site TGGGCACCTTG)  0
73. AGGTAGACATGGACCGGTTTTCCCGGTAATCCGTATTTGAA (site AGGAAGACTTG)  0
74. AGGTCATCATGGACCGGTTTTCCCGGTAATCCGTATTTGCT (site CGATCATCTAG)  0
75. AGGTTCACATGGACCGGTTTTCCCGGTAATCCGTATTTGTG (site AGGTTCCCTCA)  0
